{"source": "paper PMC4856769", "about": "(Cell Research, 2016)", "molecular_target": "T1, YEATS domain of YEATS2 (YEATS2 201-332) (Homo sapiens, UniProt Q9ULM3)", "T1 sequence (Q9ULM3 201-332)": "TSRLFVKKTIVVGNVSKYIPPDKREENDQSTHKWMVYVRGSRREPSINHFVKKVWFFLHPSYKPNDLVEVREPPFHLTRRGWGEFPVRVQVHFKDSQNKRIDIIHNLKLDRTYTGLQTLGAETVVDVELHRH", "experiment": "ITC binding of histone peptides to the YEATS domain of YEATS2", "data": [{"molecule": "C/C=C/C(=O)NCCCC[C@H](NC(=O)[C@@H](NC(=O)[C@H](CCCNC(=N)N)NC(=O)[C@H](C)N)[C@@H](C)O)C(=O)N[C@@H](CCC(N)=O)C(=O)N[C@H](C(=O)N[C@@H](C)C(=O)N[C@@H](CCCNC(=N)N)C(=O)N[C@@H](CCCCN)C(=O)N[C@@H](CO)C(=O)N[C@H](C(=O)NCC(=O)NCC(=O)N[C@@H](CCCCN)C(=O)N[C@@H](C)C(=O)O)[C@@H](C)O)[C@@H](C)O", "note": "[H31-15K4cr]", "values": [{"measurement": "Kd", "value": 121, "unit": "µM"}]}, {"molecule": "ARTKQT ARKST GGK(cr)APRKQLATKAA [H31-25K14cr]", "values": [{"measurement": "binding (in words)", "setting": "ITC, 15°C, wild type YEATS2 201-332", "value": "No binding"}]}]}
